Results on 15 compounds are retold here after PubChem BioAssay (NCI).

“And” between values parts separate entries of the source, which are not always exact repeats. Identical values can stand only once.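 How tested: cells in 96-well plates exposed to compound for 48 hours at five concentrations. At the GI50, growth is halved. TGI denotes the concentration required for complete inhibition of growth.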 A value given as a limit tells only on which side of the number the result lay.

What all share (test): growth of human tumour cells (NCI), 48 h
In assay [1] the test system is IGROV1 ovarian.
Assay [2] concerns M14 melanoma.
Assay [3] deals with MOLT-4 leukemia.
In assay [4] the test system is SK-MEL-2 melanoma.
Assay [5] relates to U251 CNS.
Assay [6] has as its system EKVX NSCLC.
The subject of assay [7] is A498 renal.
The test system of assay [8] is UACC-257 melanoma.
Assay [9] deals with SNB-75 CNS.
In assay [10] the test system is NCI-H460 lung.

Consider `O=c1sc(-c2nc3ccccc3[nH]2)c(/N=C/c2ccccc2)n1-c1ccccc1`, for which the TGI in assay [1], in [2], in assay [3], in assay [4], in assay [5] and in [6] was over 100 µM in each case. In addition, the values for the TGI in assay [7], in assay [8] and in assay [9] were over 100 µM, over 100 µM and 57.8 µM, respectively.

As for `COC(=O)C1=Cc2cn(S(=O)(=O)c3ccc(C)cc3)c3cccc(c23)C(C=C(C)C)N1C(C)=O` (stereo not drawn), the TGI in assay [1] was over 100 µM; in assay [2], over 100 µM; in assay [3], 44.9 µM; in assay [4] it was 29.5 µM; in assay [5], over 100 µM; in assay [6], over 100 µM. Besides, the TGI in [7], in assay [8] and in assay [9] was over 100 µM each time.

In the case of `CCN(CC)CCNC(=O)C(Cl)=C1C(Cl)=C(Cl)C(Cl)=C1Cl`, the GI50 in assay [1] was 3.19 µM; in assay [4], 3 µM; in assay [5] it was 2.85 µM; in assay [10], 2.71 µM; in assay [6], 6.44 µM; in assay [7], 2.59 µM. The GI50 in [8] was 2.49 µM; in assay [9], 2.21 µM. For the same compound, the TGI is over 100 µM in assay [1]; 11.6 µM in assay [4]; 10.2 µM in [5]; 11.1 µM in [10]; over 100 µM in [6]; 12.5 µM in assay [7]. Further, the TGI in assay [8] stood at 11.7 µM; in assay [9] it was 6.78 µM.

As to `COc1cc(OC)c(/C=C/C(=O)c2c(O)cc(OC)c(C3CCN(C)CC3)c2OC)c(OC)c1`, the GI50 in assay [2] was 1.67 µM; in [3], 1.63 µM; in assay [4], 1.78 µM; in [5], 1.27 µM; in [6], 1.12 µM; in assay [7], 1.6 µM. Moreover, the GI50 was 1.46 µM in assay [8] and 1.39 µM in assay [9]. In addition, the TGI stood at 3.05 µM in [2]; 3.61 µM in [3]; 3.24 µM in assay [4]; 2.52 µM in assay [5]; 2.48 µM in assay [6]; 3.02 µM in [7]. The TGI was found to be 2.77 µM in assay [8] and 2.86 µM in [9].

Take `O=[N+]([O-])c1cccc([I+]c2ccccc2)c1`: the GI50 in [1] was 5.29 µM; in assay [2], 11.1 µM; in [3], 3.4 µM; in assay [4] it was 17.8 µM; in assay [5] it was 6.39 µM; in assay [10], 3.56 µM. The GI50 in [7] was 10.4 µM; in assay [8] it was 12.1 µM; in assay [9], 6.56 µM. The TGI in [1] is 27 µM; in assay [2], 33.5 µM; in assay [3] it was 39 µM; in [4], 35.2 µM; in assay [5] it was 20.3 µM; in assay [10] it was 25.3 µM. For the same compound, the TGI in [7] amounted to 28.4 µM; in assay [8] it was 28 µM; in assay [9] it was 20.8 µM.

`O=C(Nc1ccc(Cl)cc1)c1cc2ccccc2cc1OP(=O)(O)O`: the GI50 is 3.81 µM in assay [1]; 3.74 µM in assay [2]; 24.8 µM in assay [3]; 3.58 µM in assay [4]; 3.74 µM in assay [5]; 3.43 µM in assay [10]. The GI50 in assay [6] was 2.82 µM; in assay [7], 2.79 µM; in assay [9], 2.03 µM. Besides, the TGI was 95.2 µM in assay [1]; 56.6 µM in assay [2]; over 100 µM in assay [3]; 24.4 µM in assay [4]; 21.3 µM in assay [5]; 16.8 µM in assay [10]. Moreover, the TGI in assay [6] came to 25.2 µM; in assay [7], 19.4 µM; in assay [9], 25.2 µM.

As for `O=C(NC(Cc1ccccc1)C(=O)CCl)OCc1ccccc1` (stereo not drawn), the GI50 in assay [1] was 2.98 µM; in assay [2] it was 4.69 µM; in [3], 3.56 µM; in [4] it was 1.96 µM; in assay [5], 6.97 µM; in assay [10], 4.34 µM. The figures for the GI50 in assay [7] and in [9] were 10.2 µM and 4.77 µM, respectively. The TGI in assay [1] is 13.6 µM and 27.3 µM; in assay [2], 19.2 µM and 23 µM; in [3] it was 25.4 µM; in assay [4], 4.89 µM and 22 µM; in assay [5] it was 19.6 µM and 22.8 µM; in [10], 17.4 µM and 19.8 µM. Moreover, the TGI in assay [7] is 23 µM and 27.6 µM; in [8] it was 26.7 µM and 26.2 µM; in assay [9] it was 18.9 µM and 30.2 µM.

Regarding `ClCc1ccc(-c2ccc(Cn3cnc4c(Cl)ncnc43)cc2)cc1`, the GI50 is 3.59 µM in assay [1]; 2.69 µM in [2]; 1.79 µM in [3]; 3.7 µM in [4]; 1.81 µM in assay [5]; 0.486 µM in assay [10]. Besides, the results for the GI50 in [6], in assay [7] and in assay [8] were 2.98 µM, 20.5 µM and 3.76 µM, respectively. Moreover, the TGI in assay [1] is 57.2 µM; in [2] it was 11.8 µM; in assay [3], over 100 µM; in [4], over 100 µM; in [5], 3.95 µM; in assay [10], 2.65 µM. The values for the TGI in assay [6], in [7] and in [8] were 12.9 µM, 37 µM and 24.7 µM, respectively.

Regarding `CSc1nc(SC)c2c(C)cn(C3OC(C)C(O)C(O)C3O)c2n1` (stereo not drawn), the TGI in [1], in [2], in [3], in assay [4], in [5] and in assay [10] was over 100 µM throughout. Moreover, the TGI in [6] was over 100 µM; in assay [7], 74.4 µM; in assay [9], over 100 µM.

As for `COc1cc([C@@H]2c3cc4c(cc3[C@@H](NC(=O)c3ccc(OC(C)=O)cc3)C3COC(=O)[C@@H]32)OCO4)cc(OC)c1O` (stereo partly drawn), the TGI in assay [1] is 7.77 µM; in assay [2] it was 9.22 µM; in assay [3], 2.93 µM; in [4], 16.6 µM; in assay [5] it was 2.75 µM; in [6] it was 21.2 µM. The TGI in assay [7] was determined as 8.75 µM; in assay [8], 31.9 µM; in assay [9], 5.86 µM.

As to `O=C(CC1(O)C(=O)Nc2ccc([N+](=O)[O-])cc21)c1ccc(Br)cc1` (stereo not drawn), the TGI in assay [2] is over 100 µM; in assay [3] it was over 100 µM; in assay [4], over 100 µM; in assay [5] it was 51 µM; in assay [10], over 100 µM; in [6] it was over 100 µM. For the same compound, the TGI was 50.3 µM in [7], over 100 µM in assay [8] and 76.7 µM in [9].

Regarding `O=C(O)C1C2CCC(O2)C1C(=O)NCc1cccnc1` (stereo not drawn), the TGI in assay [2], in [4], in assay [5], in assay [10], in assay [6] and in assay [7] was over 100 µM each time. The TGI in assay [8] and in [9] was over 100 µM in each case.

As for `Cn1c(=O)c(-c2c(Cl)cccc2Cl)cc2cnc(Nc3ccc(I)cc3)nc21`, the GI50 in [1] is 0.506 µM; in [3] it was 0.0174 µM; in [4], 1.52 µM; in assay [5], 0.305 µM; in assay [10] it was under 0.01 µM; in [7] it was under 0.01 µM. Also, the GI50 is 2.38 µM in [8] and 0.017 µM in [9]. Besides, the TGI in assay [1] was 3.77 µM; in [2] it was 0.346 µM; in assay [3] it was 0.787 µM; in [4] it was over 100 µM; in assay [5] it was 13.6 µM; in assay [10], 10.4 µM. Moreover, the TGI in assay [7] is under 0.01 µM; in [8], over 68.8 µM; in assay [9], 0.155 µM.

Take `Cc1nc2cc(Nc3nc(Nc4ccc(F)cc4)nc(N4CCCC4)n3)ccc2n1Cc1ccccc1`: the GI50 in assay [1] was 1.9 µM; in assay [2], 2.06 µM; in assay [3] it was 2.52 µM; in [4], 1.69 µM; in assay [5], 1.66 µM; in assay [10] it was 1.82 µM. Moreover, the GI50 in assay [7] was 1.45 µM; in [8], 2.32 µM; in [9] it was 1.58 µM. Further, the TGI in assay [1] is 3.48 µM; in [2], 4.29 µM; in assay [3], 5.68 µM; in assay [4], 3.33 µM; in assay [5], 3.36 µM; in [10], 3.44 µM. In addition, the TGI is 3.24 µM in assay [7], 5.88 µM in assay [8] and 3.45 µM in assay [9].

As for `C1C[S][Ge]2([S]CCS1)[S]CCSCC[S]2`, the GI50 in assay [1] was over 100 µM; in assay [2] it was over 100 µM; in [3], over 100 µM; in [4], over 100 µM; in [7], over 100 µM; in [9], 18.9 µM. The TGI was over 100 µM in assay [1]; over 100 µM in assay [2]; over 100 µM in assay [3]; over 100 µM in assay [4]; over 100 µM in assay [7]; 95 µM in assay [9].
